# Experimental data from PMC7419507, “In vitro Cas9-assisted editing of modular polyketide synthase genes to produce desired natural product derivatives” (Nature Communications, 2020).
# Several values for one entry are separate records, joined by “and”; a condition that tells them apart may be missing. Equal entries are not always repeated.
# Experiments:
# [1] = Cytotoxicity assay (CellTiter-Glo, 72 h), SKOV-3; format: cell-based, human; settings: human
# Method: (§1) Jurkat cells were cultured in RPMI1640 medium supplemented with 10% foetal bovine serum, penicillin (50 U/ml), streptomycin (50 μg/ml), and Glutamax. SKOV-3 cells were cultured in DMEM medium supplemented with 10% fetal bovine serum, penicillin (50 U/ml), and streptomycin (50 μg/ml). MESO-1 cells were cultured in RPMI1640 medium supplemented with 10% fetal bovine serum, penicillin (50 U/ml), and streptomycin (50 μg/ml). All cell lines were seeded in a 384-well plate at a density of 1000 cells/well in 20 μl of media and incubated at 37 °C in a humidified incubator with 5% CO2. After 4 h, 2-fold dilution samples resolved in DMSO were added to the cell culture at the concentration of 0.5% (0.1 μl) and incubated for 72 h. Cell viabilities were measured using a CellTiter-Glo luminescent cell viability assay and EnVision multilabel plate reader.
# [2] = test system: human ovarian adenocarcinoma SKOV-3 cells; assay: Cytotoxicity assay (CellTiter-Glo, 72 h), SKOV-3; format: cell-based; settings: raw replicate data
# Method: as §1
# [3] = Cytotoxicity assay (CellTiter-Glo, 72 h), MESO-1; format: cell-based; settings: human
# Method: as §1
structure (smiles),measurement,setting,value
"CO[C@H]1C[C@@H]2CC[C@@H](C)[C@@](O)(O2)C(=O)C(=O)N2CCCC[C@H]2C(=O)O[C@H]([C@H](C)C[C@@H]2CC[C@@H](O)[C@H](OC)C2)CC(=O)[C@H](C)/C=C(\C)[C@@H](O)[C@@H](OC)C(=O)[C@H](C)C[C@H](C)/C=C/C=C/C=C/1C [Compound 1, rapamycin, reference compound]",viability at 72 h,"[1]; SKOV-3 cells (ovarian adenocarcinoma), SKOV-3 cells, 72 h, read-out: Plateau level of cell viability in the dose-response curve",~60%
same,"viability at 72 h, 9.53674e-05 uM","[1]; SKOV-3 cells (ovarian adenocarcinoma), conc 9.53674e-5 uM, raw replicate data, read-out: SKOV3 viability (%)",78.7%
same,"viability at 72 h, 0.000190735 uM","[1]; SKOV-3 cells (ovarian adenocarcinoma), conc 0.000190735 uM, raw replicate data, read-out: SKOV3 viability (%)",70.9%
same,"viability at 72 h, 0.00038147 uM","[1]; SKOV-3 cells (ovarian adenocarcinoma), conc 0.00038147 uM, raw replicate data, read-out: SKOV3 viability (%)",75.1%
same,"viability at 72 h, 0.000762939 uM","[1]; SKOV-3 cells (ovarian adenocarcinoma), conc 0.000762939 uM, raw replicate data, read-out: SKOV3 viability (%)",62.9%
same,"viability at 72 h, 0.00152588 uM","[1]; SKOV-3 cells (ovarian adenocarcinoma), conc 0.00152588 uM, raw replicate data, read-out: SKOV3 viability (%)",110%
same,"viability at 72 h, 0.00305176 uM","[1]; SKOV-3 cells (ovarian adenocarcinoma), conc 0.00305176 uM, raw replicate data, read-out: SKOV3 viability (%)",70.7%
same,"viability at 72 h, 0.00610352 uM","[1]; SKOV-3 cells (ovarian adenocarcinoma), conc 0.00610352 uM, raw replicate data, read-out: SKOV3 viability (%)",64.7%
same,"viability at 72 h, 0.012207 uM","[1]; SKOV-3 cells (ovarian adenocarcinoma), conc 0.012207 uM, raw replicate data, read-out: SKOV3 viability (%)",59.4%
same,"viability at 72 h, 0.0244141 uM","[1]; SKOV-3 cells (ovarian adenocarcinoma), conc 0.0244141 uM, raw replicate data, read-out: SKOV3 viability (%)",57.9%
same,"viability at 72 h, 0.0488281 uM","[1]; SKOV-3 cells (ovarian adenocarcinoma), conc 0.0488281 uM, raw replicate data, read-out: SKOV3 viability (%)",61.1%
same,"viability at 72 h, 0.0976562 uM","[1]; SKOV-3 cells (ovarian adenocarcinoma), conc 0.0976562 uM, raw replicate data, read-out: SKOV3 viability (%)",61.7%
same,"viability at 72 h, 0.195312 uM","[1]; SKOV-3 cells (ovarian adenocarcinoma), conc 0.195312 uM, raw replicate data, read-out: SKOV3 viability (%)",59.4%
same,"viability at 72 h, 0.390625 uM","[1]; SKOV-3 cells (ovarian adenocarcinoma), conc 0.390625 uM, raw replicate data, read-out: SKOV3 viability (%)",59.7%
same,"viability at 72 h, 12.5 uM","[1]; SKOV-3 cells (ovarian adenocarcinoma), conc 12.5 uM, raw replicate data, read-out: SKOV3 viability (%)",57.5%
same,"viability at 72 h, 25 uM","[1]; SKOV-3 cells (ovarian adenocarcinoma), conc 25 uM, raw replicate data, read-out: SKOV3 viability (%)",54.8%
same,"viability at 72 h, 0.78125 uM","[1]; SKOV-3 ovarian adenocarcinoma cells, conc 0.78125 uM, raw replicate data, read-out: SKOV3 viability (%)",55.3%
same,"viability at 72 h, 1.5625 uM","[1]; SKOV-3 ovarian adenocarcinoma cells, conc 1.5625 uM, raw replicate data, read-out: SKOV3 viability (%)",58.8%
same,"viability at 72 h, 3.125 uM","[1]; SKOV-3 ovarian adenocarcinoma cells, conc 3.125 uM, raw replicate data, read-out: SKOV3 viability (%)",57.4%
same,"viability at 72 h, 6.25 uM","[1]; SKOV-3 ovarian adenocarcinoma cells, conc 6.25 uM, raw replicate data, read-out: SKOV3 viability (%)",63.1%
same,SKOV3 viability (%),[2]; conc 9.53674e-5 uM,85.5% and 83.5%
same,SKOV3 viability (%),[2]; conc 0.000190735 uM,77.8%
same,SKOV3 viability (%),[2]; conc 0.00038147 uM,76.1% and 77.6%
same,SKOV3 viability (%),[2]; conc 0.000762939 uM,63.5% and 66.3%
same,SKOV3 viability (%),[2]; conc 0.00152588 uM,104.6% and 106.1%
same,SKOV3 viability (%),[2]; conc 0.00305176 uM,68.3% and 63.8%
same,SKOV3 viability (%),[2]; conc 0.00610352 uM,65.9%
same,SKOV3 viability (%),[2]; conc 0.012207 uM,65.2% and 58.2%
same,SKOV3 viability (%),[2]; conc 0.0244141 uM,61.9% and 60.6%
same,SKOV3 viability (%),[2]; conc 0.0488281 uM,65.4% and 58.1%
same,SKOV3 viability (%),[2]; conc 0.0976562 uM,60.9% and 62.0%
same,SKOV3 viability (%),[2]; conc 0.195312 uM,60.7% and 56.3%
same,SKOV3 viability (%),[2]; conc 0.390625 uM,59.9% and 61.0%
same,SKOV3 viability (%),[2]; conc 0.78125 uM,54.1% and 58.4%
same,SKOV3 viability (%),[2]; conc 1.5625 uM,63.0%
same,SKOV3 viability (%),[2]; conc 3.125 uM,54.7%
same,SKOV3 viability (%),[2]; conc 6.25 uM,63.2%
same,SKOV3 viability (%),[2]; conc 12.5 uM,56.9%
same,SKOV3 viability (%),[2]; conc 25 uM,55.5%
same,SKOV3 viability (%),[2]; conc 50 uM,16.3% and 24.9% and 9.3%
same,viability at 72 h,"[3]; MESO-1 cells (malignant pleural mesothelioma), MESO-1 cells, 72 h, read-out: Plateau level of cell viability in the dose-response curve",~75%
same,"viability at 72 h, 9.53674e-05 uM","[3]; MESO-1 malignant pleural mesothelioma cells, conc 9.53674e-5 uM, raw replicate data, read-out: MESO1 viability (%)",79%
same,"viability at 72 h, 0.000190735 uM","[3]; MESO-1 malignant pleural mesothelioma cells, conc 0.000190735 uM, raw replicate data, read-out: MESO1 viability (%)",73.6%
same,"viability at 72 h, 0.00038147 uM","[3]; MESO-1 malignant pleural mesothelioma cells, conc 0.00038147 uM, raw replicate data, read-out: MESO1 viability (%)",83.4%
same,"viability at 72 h, 0.000762939 uM","[3]; MESO-1 malignant pleural mesothelioma cells, conc 0.000762939 uM, raw replicate data, read-out: MESO1 viability (%)",73.1%
same,"viability at 72 h, 0.00152588 uM","[3]; MESO-1 malignant pleural mesothelioma cells, conc 0.00152588 uM, raw replicate data, read-out: MESO1 viability (%)",116%
same,"viability at 72 h, 0.00305176 uM","[3]; MESO-1 malignant pleural mesothelioma cells, conc 0.00305176 uM, raw replicate data, read-out: MESO1 viability (%)",69.5%
same,"viability at 72 h, 0.00610352 uM","[3]; MESO-1 malignant pleural mesothelioma cells, conc 0.00610352 uM, raw replicate data, read-out: MESO1 viability (%)",78.3%
same,"viability at 72 h, 0.012207 uM","[3]; MESO-1 malignant pleural mesothelioma cells, conc 0.012207 uM, raw replicate data, read-out: MESO1 viability (%)",77.6%
same,"viability at 72 h, 0.0244141 uM","[3]; MESO-1 malignant pleural mesothelioma cells, conc 0.0244141 uM, raw replicate data, read-out: MESO1 viability (%)",75.2%
